Assay results: patent publication US20230286923A1 (INIPHARM, INC., priority 2020, published 2023)

Each molecule was assayed against HSD17B13 enzyme (Homo sapiens (Human), UniProt Q7Z5P4) (assay: Estrone detection assay (LC/MS, conversion of estradiol to estrone) for HSD17B13 activity). Conditions: substrate 4 µM estradiol, 6 mM NAD+, 30 nM enzyme.
HSD17B13 enzyme, sequence (Q7Z5P4 20-300): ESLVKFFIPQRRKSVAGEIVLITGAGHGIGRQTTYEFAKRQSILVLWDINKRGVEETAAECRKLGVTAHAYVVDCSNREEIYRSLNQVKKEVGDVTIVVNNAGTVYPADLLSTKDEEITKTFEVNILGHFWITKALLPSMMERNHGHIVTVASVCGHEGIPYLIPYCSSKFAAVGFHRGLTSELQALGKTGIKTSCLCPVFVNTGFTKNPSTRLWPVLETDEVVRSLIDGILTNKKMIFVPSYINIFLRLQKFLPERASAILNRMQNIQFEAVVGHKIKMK
Format: biochemical
Method: The liquid chromatography/mass spectrometry (LC/MS) estrone detection assay monitors the conversion of estradiol to estrone by HSD17B13. This assay was undertaken in a 96wp format (Eppendorf deep well Plate 96/500) in an 80 µl reaction volume containing: 4 µM of Estradiol (E2; Cayman; #10006315), 6 mM NAD^+ (Sigma; #N0623) and 30 nM HSD17B13 enzyme (in-house; E. coli expressed His-tagged, purified, soluble protein) in a reaction containing 1 M potassium phosphate buffer pH 7.4, with 0.5% vehicle (DMSO). Reactions were incubated for 2 hours at 26.5° C., and estradiol (E2) conversion to estrone (E1) was quantitated by LC-MS/MS based analyte detection for both E2 and E1 using LCMS grade reagents.
Reactions were terminated by the addition of two volumes of acetonitrile (MeCN; LCMS grade; CAS# 75/05/8) containing deuterated (D4)-E1 used as internal standard (Clear Synth; #CS-T-54273; 500 ng/mL final concentration). Samples were applied to pre-prepared Bond Elut-C18 extraction cartridges (3 mL; Agilent; #12102028), washed and eluted in MeCN. Eluates were dried under nitrogen and re-suspended in 60% methanol (LCMS grade methanol; CAS# 67/56/1) before submission for analysis. Aqueous linearity for E2 and E1 were included for quantification.
Analysis of samples was undertaken on a XBridge BEH C18 column (Waters; #186003033) using 0.1% Diethyl Amine in MeCN (mobile phase A; DEA CAS# 109-89-7) and 0.1% Diethyl Amine in milli-Q water (mobile phase B) in a 3 min gradient allowing 25%B. Analytes were detected in negative mode using MRM analysis, with E2 having a RT of 1.85 min and E1 having a RT of 2 min. Activity of the enzyme, in the absence of NAD^+, was used to evaluate specificity of conversion. Enzyme activity in the presence of test samples was expressed as a percentage of the uninhibited enzyme activity, and plotted versus inhibitor concentration. Non-linear regression was performed using a four-parameter logistic model and GraphPad Prism software (GraphPad Software, La Jolla, CA). All assessments were undertaken in duplicate evaluations and pooled during extraction process and subsequently injected as duplicates for LC-MS/MS analysis.
`N#Cc1cc(C(=O)Nc2cccc3ncn(Cc4cccc(OC(F)(F)F)c4)c(=O)c23)cc(Cl)c1O` [Example 48, 3-chloro-5-cyano-4-hydroxy-N-(4-oxo-3-(3-(trifluoromethoxy)benzyl)-3,4-dihydroquinazolin-5-yl)benzamide] gave an IC50 of 100 to 1000 nM.
Molecule `C[C@@H](c1cccc(F)c1)n1cnc2cccc(NC(=O)c3cc(Cl)c(O)c(C#N)c3)c2c1=O` [Example 38, (S)-3-chloro-5-cyano-N-(3-(1-(3-fluorophenyl)ethyl)-4-oxo-3,4-dihydroquinazolin-5-yl)-4-hydroxybenzamide] has an IC50 of 100 to 1000 nM.
In the case of `O=C(Nc1cccc2ncn(Cc3ccc(C(F)(F)F)cc3)c(=O)c12)c1cc(Cl)c(O)c(C(F)(F)F)c1` [Example 46, 3-chloro-4-hydroxy-N-(4-oxo-3-(4-(trifluoromethyl)benzyl)-3,4-dihydroquinazolin-5-yl)-5-(trifluoromethyl)benzamide], the IC50 is reported as 100 to 1000 nM.
With `N#Cc1cc(C(=O)Nc2cccc3ncn(Cc4ccc(F)cc4)c(=O)c23)cc(F)c1O` [Example 44, 3-cyano-5-fluoro-N-(3-(4-fluorobenzyl)-4-oxo-3,4-dihydroquinazolin-5-yl)-4-hydroxybenzamide] the IC50 was at most 100 nM.
With `CC(C)(C)CCn1cnc2cccc(NC(=O)c3ccc(-c4nnn[nH]4)c(Cl)c3)c2c1=O` [Example 13, 3-chloro-N-(3-(3,3-dimethylbutyl)-4-oxo-3,4-dihydroquinazolin-5-yl)-4-(1H-tetrazol-5-yl)benzamide] the IC50 was 1000 to 10000 nM.
`N#Cc1cc(C(=O)Nc2cccc3ncn(Cc4ccc(OC(F)(F)F)cc4)c(=O)c23)cc(F)c1O` [Example 53, 3-cyano-5-fluoro-4-hydroxy-N-(4-oxo-3-(4-(trifluoromethoxy)benzyl)-3,4-dihydroquinazolin-5-yl)benzamide] showed an IC50 of 100 to 1000 nM.
For `N#Cc1cc(C(=O)Nc2cccc3ncn(Cc4cccc(OC(F)(F)F)c4)c(=O)c23)cc(F)c1O` [Example 56, 3-cyano-5-fluoro-4-hydroxy-N-(4-oxo-3-(3-(trifluoromethoxy)benzyl)-3,4-dihydroquinazolin-5-yl)benzamide], the IC50 was 100 to 1000 nM.
`N#Cc1cc(C(=O)Nc2cccc3ncn(Cc4ccc(OC(F)(F)F)cc4)c(=O)c23)cc(Cl)c1O` [Example 58, 3-chloro-5-cyano-4-hydroxy-N-(4-oxo-3-(4-(trifluoromethoxy)benzyl)-3,4-dihydroquinazolin-5-yl)benzamide] showed an IC50 of 100 to 1000 nM.
`O=C(Nc1cccc2ncn(Cc3ccccc3OC(F)(F)F)c(=O)c12)c1cc(F)c(O)c(C(F)(F)F)c1` [Example 64, 3-fluoro-4-hydroxy-N-(4-oxo-3-(2-(trifluoromethoxy)benzyl)-3,4-dihydroquinazolin-5-yl)-5-(trifluoromethyl)benzamide] showed an IC50 of at most 100 nM.
In the case of `C[C@@H](c1cccc(F)c1)n1cnc2cccc(NC(=O)c3cc(F)c(O)c(C#N)c3)c2c1=O` [Example 47, (S)-3-cyano-5-fluoro-N-(3-(1-(3-fluorophenyl)ethyl)-4-oxo-3,4-dihydroquinazolin-5-yl)-4-hydroxybenzamide], the IC50 is reported as at most 100 nM.
Molecule `N#Cc1cc(C(=O)Nc2cccc3ncn(Cc4cccc(C(F)(F)F)c4)c(=O)c23)cc(F)c1O` [Example 57, 3-cyano-5-fluoro-4-hydroxy-N-(4-oxo-3-(3-(trifluoromethyl)benzyl)-3,4-dihydroquinazolin-5-yl)benzamide] has an IC50 of at most 100 nM.
Work on `O=C(Nc1cccc2ncn(Cc3ccc(F)cc3)c(=O)c12)c1cc(Cl)c(O)c(C(F)(F)F)c1` [Example 35, 3-chloro-N-(3-(4-fluorobenzyl)-4-oxo-3,4-dihydroquinazolin-5-yl)-4-hydroxy-5-(trifluoromethyl)benzamide] yielded an IC50 of 100 to 1000 nM.
`O=C(Nc1cccc2ncn(Cc3ccc(C(F)(F)F)cc3)c(=O)c12)c1cc(Cl)c(O)c(C(F)(F)F)n1` [Example 51, 4-chloro-5-hydroxy-N-(4-oxo-3-(4-(trifluoromethyl)benzyl)-3,4-dihydroquinazolin-5-yl)-6-(trifluoromethyl)picolinamide] gave an IC50 of 1000 to 10000 nM.
With `CC(C)(C)n1ccc(Cn2cnc3cccc(NC(=O)c4cc(F)c(O)c(C#N)c4)c3c2=O)n1` [Example 63, N-(3-((1-(tert-butyl)-1H-pyrazol-3-yl)methyl)-4-oxo-3,4-dihydroquinazolin-5-yl)-3-cyano-5-fluoro-4-hydroxybenzamide] the IC50 was 100 to 1000 nM.
`O=C(Nc1cccc2ncn(Cc3cocn3)c(=O)c12)c1cc(Cl)c(O)c(C(F)(F)F)c1` [Example 42] was tested, and the IC50 was 1000 to 10000 nM.
`O=C(Nc1cccc2ncn(Cc3ccccc3C(F)(F)F)c(=O)c12)c1cc(Cl)c(O)c(C(F)(F)F)n1` [Example 55, 4-chloro-5-hydroxy-N-(4-oxo-3-(2-(trifluoromethyl)benzyl)-3,4-dihydroquinazolin-5-yl)-6-(trifluoromethyl)picolinamide] gave an IC50 of 100 to 1000 nM.
Work on `N#Cc1cc(C(=O)Nc2cccc3ncn(Cc4ccc(C(F)(F)F)cc4)c(=O)c23)cc(F)c1O` [Example 59, 3-cyano-5-fluoro-4-hydroxy-N-(4-oxo-3-(4-(trifluoromethyl)benzyl)-3,4-dihydroquinazolin-5-yl)benzamide] yielded an IC50 of at most 100 nM.
Work on `N#Cc1cc(C(=O)Nc2cccc3ncn(Cc4ccccc4C(F)(F)F)c(=O)c23)cc(F)c1O` [Example 52, 3-cyano-5-fluoro-4-hydroxy-N-(4-oxo-3-(2-(trifluoromethyl)benzyl)-3,4-dihydroquinazolin-5-yl)benzamide] yielded an IC50 of at most 100 nM.
With `O=C(Nc1cccc2ncn(Cc3cccc(F)c3)c(=O)c12)c1cc(C(F)(F)F)c(O)c(C(F)(F)F)n1` [Example 40, N-(3-(3-fluorobenzyl)-4-oxo-3,4-dihydroquinazolin-5-yl)-5-hydroxy-4,6-bis(trifluoromethyl)picolinamide] the IC50 was 100 to 1000 nM.
`C[C@@H](c1cccc(F)c1)n1cnc2cccc(NC(=O)c3cc(Cl)c(O)c(C(F)(F)F)n3)c2c1=O` [Example 43, (S)-4-chloro-N-(3-(1-(3-fluorophenyl)ethyl)-4-oxo-3,4-dihydroquinazolin-5-yl)-5-hydroxy-6-(trifluoromethyl)picolinamide] gave an IC50 of 100 to 1000 nM.
With `CS(=O)(=O)c1ccccc1Cn1cnc2cccc(NC(=O)c3cc(F)c(O)c(C#N)c3)c2c1=O` [Example 62, 3-cyano-5-fluoro-4-hydroxy-N-(3-(2-(methylsulfonyl)benzyl)-4-oxo-3,4-dihydroquinazolin-5-yl)benzamide] the IC50 was 100 to 1000 nM.
`O=C(Nc1cccc2ncn(Cc3ccccc3F)c(=O)c12)c1cc(Cl)c(O)c(C(F)(F)F)n1` [Example 45, 4-chloro-N-(3-(2-fluorobenzyl)-4-oxo-3,4-dihydroquinazolin-5-yl)-5-hydroxy-6-(trifluoromethyl)picolinamide] showed an IC50 of 100 to 1000 nM.
`O=C(Nc1cccc2ncn(Cc3ccccc3C(F)(F)F)c(=O)c12)c1cc(Cl)c(O)c(C(F)(F)F)c1` [Example 39, 3-chloro-4-hydroxy-N-(4-oxo-3-(2-(trifluoromethyl)benzyl)-3,4-dihydroquinazolin-5-yl)-5-(trifluoromethyl)benzamide] was tested, and the IC50 was 100 to 1000 nM.
`O=C(Nc1cccc2ncn(Cc3cccc(F)c3)c(=O)c12)c1cc(Cl)c(O)c(=O)[nH]1` [Example 65, 4-chloro-N-(3-(3-fluorobenzyl)-4-oxo-3,4-dihydroquinazolin-5-yl)-5-hydroxy-6-oxo-1,6-dihydropyridine-2-carboxamide] was tested, and the IC50 was over 10000 nM.
Molecule `O=C(Nc1cccc2ncn(Cc3ccccc3F)c(=O)c12)c1cc(Cl)c(O)c(C(F)(F)F)c1` [Example 41, 3-chloro-N-(3-(2-fluorobenzyl)-4-oxo-3,4-dihydroquinazolin-5-yl)-4-hydroxy-5-(trifluoromethyl)benzamide] has an IC50 of 100 to 1000 nM.
`N#Cc1ccccc1Cn1cnc2cccc(NC(=O)c3cc(F)c(O)c(C#N)c3)c2c1=O` [Example 60, 3-cyano-N-{3-[(2-cyanophenyl)methyl]-4-oxo-3,4-dihydroquinazolin-5-yl}-5-fluoro-4-hydroxybenzamide] showed an IC50 of at most 100 nM.
For `N#Cc1cc(C(=O)Nc2cccc3ncn(Cc4cccc(F)c4)c(=O)c23)cc(Cl)c1O` [Example 49, 3-chloro-5-cyano-N-(3-(3-fluorobenzyl)-4-oxo-3,4-dihydroquinazolin-5-yl)-4-hydroxybenzamide], the IC50 was 100 to 1000 nM.
For `CC(C)(C)CCn1cnc2cccc(NC(=O)c3cnc(O)c(Cl)c3)c2c1=O` [Example 12, 5-chloro-N-(3-(3,3-dimethylbutyl)-4-oxo-3,4-dihydroquinazolin-5-yl)-6-hydroxynicotinamide], the IC50 was 1000 to 10000 nM.
`O=C(Nc1cccc2ncn(Cc3nncs3)c(=O)c12)c1cc(Cl)c(O)c(C(F)(F)F)c1` [Example 36, N-(3-((1,3,4-thiadiazol-2-yl)methyl)-4-oxo-3,4-dihydroquinazolin-5-yl)-3-chloro-4-hydroxy-5-(trifluoromethyl)benzamide] showed an IC50 of 1000 to 10000 nM.
